In patent US12319967B2, “Methods and compositions for diagnosing and treating prostate cancer based on long noncoding RNA overlapping the LCK gene that regulates prostate cancer cell growth” (University of Virginia Patent Foundation, priority 2019, dated 2025):

System: LNCaP, C4-2, and Rv1 cells
Experiment: CyQuant growth assay 7 days after viral transduction
Format: cell-based, human
Conditions: 0.05 nM R1881; LNCaP, C4-2, and Rv1 cells; day 7
Description: FIG. 5A illustrates the gene structure of LCK and location of each shRNA targeting LCK. MISSION shRNAs targeting human LCK (NM_005356) and the pLKO vector control were purchased from ThermoFisher. Each shRNA was validated for efficiency of LCK or HULLK knockdown in Jurkat and PCa cells by qPCR. (C) The results of CyQuant Assay measuring DNA content as a surrogate for cell number 7 days after shRNA transduction is shown in FIG. 5C. Growth was compared to untreated empty vector control and the values were averaged across biological replicates. Error bars represent standard error of the mean. The relative effect of four independent shRNAs on cell growth in LNCaP, C42, and Rv1 cells in the absence or presence of 0.05 nM R1881, n=3. FIG. 5D plots the data for the relative effect of HULLK overexpression on cell growth in LNCaP, C42, and Rv1 cells in the absence or presence of 0.05 nM R1881, n=3. Statistical analysis was performed using ANOVA and Tukey test.
CyQuant Growth Assays: Assay was performed as previously described (18). Briefly, shRNA or pLKO control virus was added to 1 μg/ml fibronectin-coated 96 well plates. Cells were plated in RPMI-1640 plus 5% CSS with vehicle, 0-0.05 nM R1881, and/or 10 μM Enzalutamide (Selleck Chemicals). Quantification was performed on Day 7 using a BioTek Synergy 2 plate reader.
To explore the functional role of HULLK in PCa, the effects of HULLK knockdown on PCa cell growth was examined. LNCaP, C4-2, and Rv1 cells were transduced with lentiviral particles expressing four independent shRNAs specific for LCK or pLKO empty vector control in the presence or absence of 0.05 nM R1881. Two shRNAs were targeting the carboxy-terminal of LCK (shLCK-3 and shLCK-4) and should decrease HULLK levels; and two shRNAs were directed toward the amino-terminal (shLCK-1 and shLCK-2) and should not affect HULLK expression (FIG. 5A). […] As a control, all four shRNAs efficiently knocked LCK down 60-90% in Jurkat cells. Seven days following viral transduction, cellular growth was measured using CyQuant, which uses DNA content as a surrogate for cell number. In the absence of hormone, the four shRNAs had no dramatic effects on growth in LNCaP or C4-2 cells (FIG. 5C).
The complement experiment of evaluating the effects of overexpressing HULLK on cell growth was also performed. LNCaP, C4-2, and Rv1 cells were transduced with lentivirus expressing either vector or HULLK constructs in the presence or absence of 0.05 nM R1881, and proliferation was calculated seven days following viral transduction.

In the case of `C[C@]1(O)CC[C@H]2[C@@H]3CCC4=CC(=O)CCC4=C3C=C[C@@]21C` [R1881], the “cell growth of vector-expressing control cells exposed to R1881” value is reported as “expected increase in cell growth”.
